Results as given in patent US6548042B2, “Bis-phosphonate compounds” (priority 2000, dated 2003).

System: MT-1 cells
Assay: Bone lesions to healthy bone ratio in rat inoculated with MT-1 cells (scintigraphy, Bioscope)
Assay type: in vivo
Conditions: 15 MBq i.v. seven days after MT-1 inoculation, 24 h
Description: Tumour lesion to healthy bone ratio. A rat weighing 114 g was given a single bolus tail vein injection of 15 MBq (500 μl) of 46a seven days after inoculation with 1×10^6 MT-1 cells. The animal was sacrificed 24 h postinjection. The whole animal was then placed under a gamma camera and images were obtained. The spine was then excised and cut into slices of 10 μm. The slices were molded in Epon and images were obtained with a beta camera.
A prototype real time autoradiography system (Bioscope 3225, IDEAS, Høvik, Norway) consisting of a double sided multiple strip silicon detector was used to obtain images of bone slices.
In order to obtain ratios of bone cancer lesions to healthy bone, the hydroxybisphosphonate 46a was injected into a rat inoculated with MT-1 cells (a human breast cancer cell line, see section 4.2.3.1.) seven days earlier. The animal was sacrified 24 h postinjection and whole body images were obtained by means of scintigraphy. […] The radioactivity distributions in slices of the spine were then measured with a device (Bioscope) for real time autoradiography. The resulting images were automatically aligned by means of an image correlation method (Personal communication Arne Skretting, The Norwegian Radium Hospital, Oslo). Finally, the aligned images were added in layers to reconstruct the whole spine. […] Abnormal uptake was detected in one slice only. […]

Structure (SMILES): O=P(O)(O)C(O)(Cc1cccc([131I])c1)P(=O)(O)O [46a, 1-hydroxy(m-[^131I and ^125I]-iodophenyl)-ethylidene-1,1-bisphosphonic acid]
- Bone cancer lesions to healthy bone ratio: inconclusive
